Assay results taken from ChEMBL document CHEMBL1201862, “PubChem BioAssay data set” (2004).
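All cell lines were grown in 96-well plates and treated with compound for 48 hours. GI50: concentration for 50% inhibition of growth.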 The source made the active and inactive calls. No stated cut-off is given here; in the data, active = GI50 up to about 1.1 µM and inactive = higher.

Legend:
Assay in all cases: NCI-60 cell line screen, 48 h
M14 = test system: M14
SK-MEL-5 = test system: SK-MEL-5
HT-29 = test system: HT-29
NCI-H226 = test system: NCI-H226
T47D = test system: T47D
SK-MEL-28 = test system: SK-MEL-28
PC-3 = test system: PC-3
786-0 = test system: 786-0
SR = test system: SR
NCI-H522 = test system: NCI-H522
OVCAR-5 = test system: OVCAR-5
CCRF-CEM = test system: CCRF-CEM
NCI/ADR-RES = test system: NCI/ADR-RES
HCT-116 = test system: HCT-116
SNB-19 = test system: SNB-19
U-251 = test system: U-251
RXF 393 = test system: RXF 393
HOP-92 = test system: HOP-92
UACC-257 = test system: UACC-257
CAKI-1 = test system: CAKI-1

Measured: GI50

Cc1ccc(/N=N/c2c(O)c(C(=O)O)cc3ccccc23)c(S(=O)(=O)O)c1
inactive: M14 > 100 µM | SK-MEL-5 > 100 µM | HT-29 > 100 µM | NCI-H226 > 100 µM | T47D > 100 µM | SK-MEL-28 > 100 µM | PC-3 > 100 µM | 786-0 > 100 µM | SR > 100 µM | NCI-H522 > 100 µM | OVCAR-5 > 100 µM | CCRF-CEM > 100 µM | NCI/ADR-RES > 100 µM | HCT-116 > 100 µM | SNB-19 > 100 µM | U-251 > 100 µM | RXF 393 > 100 µM | HOP-92 97.1 µM | UACC-257 > 100 µM | CAKI-1 > 100 µM

Cc1cc(S(=O)(=O)Nc2nnc3c(Cl)cc(C(F)(F)F)cn23)c(S)cc1Cl
inactive: M14 > 83.8 µM | SK-MEL-5 22.8 µM | HT-29 37.2 µM | NCI-H226 23.3 µM | T47D 37.2 µM | SK-MEL-28 > 100 µM | PC-3 69.3 µM | 786-0 57.1 µM | SR 66.8 µM | NCI-H522 63.5 µM | OVCAR-5 > 100 µM | CCRF-CEM > 84.7 µM | NCI/ADR-RES > 80.4 µM | HCT-116 34.8 µM | SNB-19 25.1 µM | U-251 36 µM | RXF 393 > 100 µM | HOP-92 > 100 µM | UACC-257 > 100 µM | CAKI-1 > 89.3 µM

OC(c1cc(C(O)(C(F)(F)F)C(F)(F)F)ncn1)(C(F)(F)F)C(F)(F)F
inactive: M14 > 10 µM | SK-MEL-5 > 10 µM | HT-29 > 10 µM | NCI-H226 > 10 µM | T47D > 10 µM | SK-MEL-28 > 10 µM | PC-3 > 10 µM | 786-0 > 10 µM | SR > 10 µM | NCI-H522 > 10 µM | CCRF-CEM > 10 µM | NCI/ADR-RES > 10 µM | HCT-116 > 10 µM | SNB-19 > 10 µM | U-251 > 10 µM | RXF 393 > 10 µM | HOP-92 > 10 µM | UACC-257 > 10 µM | CAKI-1 > 10 µM

N#C/C(=C\c1ccccc1)C(=O)Nc1nnc(-c2ccccc2)o1
inactive: M14 37.8 µM | SK-MEL-5 19 µM | HT-29 41.3 µM | NCI-H226 44.9 µM | T47D 31.3 µM | SK-MEL-28 39.9 µM | PC-3 42.1 µM | 786-0 53 µM | SR 25.6 µM | NCI-H522 38 µM | OVCAR-5 82.6 µM | CCRF-CEM 17.9 µM | NCI/ADR-RES 29.6 µM | HCT-116 33.3 µM | U-251 37.4 µM | RXF 393 34 µM | HOP-92 47.9 µM | UACC-257 25.7 µM | CAKI-1 28.1 µM

CS(=O)(=O)CCC(N)P(=O)(O)O (stereo unspecified)
inactive: M14 > 100 µM | SK-MEL-5 > 100 µM | HT-29 > 100 µM | NCI-H226 > 100 µM | T47D > 100 µM | SK-MEL-28 > 100 µM | PC-3 > 100 µM | 786-0 > 100 µM | SR > 100 µM | NCI-H522 > 100 µM | OVCAR-5 > 100 µM | CCRF-CEM > 100 µM | NCI/ADR-RES > 100 µM | HCT-116 > 100 µM | SNB-19 > 100 µM | U-251 > 100 µM | HOP-92 > 100 µM | UACC-257 > 100 µM | CAKI-1 > 100 µM

CCN(CC)C(=O)c1cc([N+](=O)[O-])c(=O)n2c1[nH]c1ccccc12
inactive: M14 > 100 µM | SK-MEL-5 > 100 µM | HT-29 > 100 µM | NCI-H226 > 100 µM | T47D > 100 µM | SK-MEL-28 > 100 µM | PC-3 > 100 µM | 786-0 > 100 µM | SR > 100 µM | NCI-H522 > 100 µM | OVCAR-5 > 100 µM | CCRF-CEM > 100 µM | NCI/ADR-RES > 100 µM | HCT-116 > 100 µM | SNB-19 > 100 µM | RXF 393 > 100 µM | HOP-92 > 100 µM | UACC-257 > 100 µM | CAKI-1 > 100 µM

COc1ccc(C2N(c3ccc(F)cc3)C(=O)N3C(c4ccc(OC)cc4)N(c4ccc(F)cc4)C(=O)N23)cc1 (stereo unspecified)
inactive: M14 > 100 µM | SK-MEL-5 > 100 µM | HT-29 > 100 µM | T47D > 100 µM | SK-MEL-28 > 100 µM | PC-3 > 100 µM | 786-0 > 100 µM | SR 34 µM | NCI-H522 > 100 µM | OVCAR-5 > 100 µM | CCRF-CEM > 100 µM | NCI/ADR-RES > 100 µM | HCT-116 > 100 µM | SNB-19 > 100 µM | U-251 > 100 µM | RXF 393 > 100 µM | HOP-92 > 100 µM | UACC-257 > 100 µM | CAKI-1 > 100 µM

CSc1nc(SC)c2c(C)cn(COCCOC(=O)c3ccccc3)c2n1
inactive: M14 > 100 µM | SK-MEL-5 > 100 µM | HT-29 > 100 µM | NCI-H226 > 100 µM | T47D 32.8 µM | SK-MEL-28 > 100 µM | PC-3 74.5 µM | 786-0 > 100 µM | SR > 100 µM | NCI-H522 > 100 µM | OVCAR-5 > 100 µM | CCRF-CEM 64.1 µM | NCI/ADR-RES > 100 µM | HCT-116 83 µM | SNB-19 > 100 µM | U-251 > 100 µM | RXF 393 82.6 µM | HOP-92 41.5 µM | CAKI-1 > 100 µM

CO/C(=N\N=C\c1cccc(Cl)c1)c1ccncc1
inactive: M14 > 10 µM | HT-29 > 10 µM | NCI-H226 > 10 µM | T47D > 10 µM | PC-3 > 10 µM | 786-0 > 10 µM | SR > 10 µM | NCI-H522 > 10 µM | OVCAR-5 > 10 µM | CCRF-CEM > 10 µM | NCI/ADR-RES > 10 µM | HCT-116 > 10 µM | SNB-19 > 10 µM | U-251 > 10 µM | RXF 393 > 10 µM | HOP-92 > 10 µM | UACC-257 > 10 µM | CAKI-1 > 10 µM

O=C1CC(C(O)CO)CC(=O)N1 (stereo unspecified)
inactive: M14 > 100 µM | SK-MEL-5 > 100 µM | HT-29 > 100 µM | NCI-H226 > 100 µM | T47D > 100 µM | SK-MEL-28 > 100 µM | PC-3 > 100 µM | 786-0 > 100 µM | SR > 100 µM | NCI-H522 > 100 µM | OVCAR-5 > 100 µM | CCRF-CEM > 100 µM | NCI/ADR-RES > 100 µM | HCT-116 > 100 µM | SNB-19 > 100 µM | U-251 > 100 µM | HOP-92 > 100 µM | UACC-257 > 100 µM | CAKI-1 > 100 µM
